The supplement of paper PMC10307832

Columns and labels:
Test in all cases: relative viability (nuclei count vs DMSO), 5 days (fraction); higher = more cells survive
BI-D1870 + Pemetrexed = compound: CC(C)CCN1c2nc(Nc3cc(F)c(O)c(F)c3)ncc2N(C)C(=O)C1C [BI-D1870] + Nc1nc2[nH]cc(CCc3ccc(C(=O)N[C@@H](CCC(=O)O)C(=O)O)cc3)c2c(=O)[nH]1 [Pemetrexed] (partner 0.2 µM)
In short: (§1)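 The day after seeding in 1536-well plates, lung cancer cell lines were treated by pin tool with a single drug, or with a fixed anchor-drug dose together with five library-drug doses (not always all listed) in √10 steps. After 5 days, a combined fix-and-stain solution (final 0.05% Triton X-100, 1% formaldehyde, 1 ug/ml Hoechst) was added. Nuclei counted on 4× images gave relative viability as treated counts over vehicle counts, reported as the median of duplicate plates.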

Zebularine + Foretinib = compound: O=c1ncccn1[C@@H]1O[C@H](CO)[C@@H](O)[C@H]1O [Zebularine] + COc1cc2c(Oc3ccc(NC(=O)C4(C(=O)Nc5ccc(F)cc5)CC4)cc3F)ccnc2cc1OCCCN1CCOCC1 [Foretinib] (partner 0.25 µM)
In short: as §1

Zebularine + Pemetrexed = compound: O=c1ncccn1[C@@H]1O[C@H](CO)[C@@H](O)[C@H]1O [Zebularine] + Nc1nc2[nH]cc(CCc3ccc(C(=O)N[C@@H](CCC(=O)O)C(=O)O)cc3)c2c(=O)[nH]1 [Pemetrexed] (partner 0.2 µM)
In short: as §1

Zebularine + Trametinib = compound: O=c1ncccn1[C@@H]1O[C@H](CO)[C@@H](O)[C@H]1O [Zebularine] + CC(=O)Nc1cccc(-n2c(=O)n(C3CC3)c(=O)c3c(Nc4ccc(I)cc4F)n(C)c(=O)c(C)c32)c1 [Trametinib] (partner 0.02 µM)
In short: as §1

Cell Line | relative viability (BI-D1870 + Pemetrexed; first compound 0.04 µM) | relative viability (BI-D1870 + Pemetrexed; first compound 0.1265 µM) | relative viability (BI-D1870 + Pemetrexed; first compound 0.4 µM) | relative viability (BI-D1870 + Pemetrexed; first compound 1.265 µM) | relative viability (BI-D1870 + Pemetrexed; first compound 4 µM) | relative viability (Zebularine + Foretinib; first compound 1 µM) | relative viability (Zebularine + Foretinib; first compound 3.162 µM) | relative viability (Zebularine + Foretinib; first compound 10 µM) | relative viability (Zebularine + Foretinib; first compound 31.62 µM) | relative viability (Zebularine + Foretinib; first compound 100 µM) | relative viability (Zebularine + Pemetrexed; first compound 1 µM) | relative viability (Zebularine + Pemetrexed; first compound 3.162 µM) | relative viability (Zebularine + Pemetrexed; first compound 10 µM) | relative viability (Zebularine + Pemetrexed; first compound 31.62 µM) | relative viability (Zebularine + Pemetrexed; first compound 100 µM) | relative viability (Zebularine + Trametinib; first compound 1 µM) | relative viability (Zebularine + Trametinib; first compound 3.162 µM) | relative viability (Zebularine + Trametinib; first compound 10 µM) | relative viability (Zebularine + Trametinib; first compound 31.62 µM) | relative viability (Zebularine + Trametinib; first compound 100 µM)
NCI-H2087 | 0.697 | 0.671 | 0.75 | 0.71 | 0.703 | 1.06 | 1.04 | 0.782 | 0.791 | 0.284 | 0.722 | 0.667 | 0.511 | 0.548 | 0.216 | 0.195 | 0.166 | 0.204 | 0.206 | 0.142
NCI-H1437 | 0.335 | 0.303 | 0.323 | 0.355 | 0.338 | 1.33 | 1.29 | 1.04 | 1.21 | 0.653 | 0.322 | 0.335 | 0.276 | 0.295 | 0.275 | 0.545 | 0.532 | 0.419 | 0.619 | 0.661
ChaGo-K-1 | 0.255 | 0.245 | 0.253 | 0.242 | 0.235 | 0.939 | 0.824 | 0.337 | 0.252 | 0.203 | 0.269 | 0.257 | 0.254 | 0.242 | 0.203 | 0.913 | 0.874 | 0.438 | 0.246 | 0.204
NCI-H650 | 0.848 | 0.837 | 0.96 | 0.896 | 0.802 | 1.02 | 0.934 | 0.824 | 0.447 | 0.258 | 0.918 | 1.03 | 0.757 | 0.454 | 0.286 | 0.895 | 0.97 | 0.826 | 0.471 | 0.262
COR-L23 | 0.181 | 0.209 | 0.195 | 0.205 | 0.201 | 1.11 | 0.98 | 0.621 | 0.513 | 0.157 | 0.201 | 0.199 | 0.193 | 0.207 | 0.168 | 0.642 | 0.602 | 0.463 | 0.575 | 0.241
COR-L 105 | 1.31 | 0.883 | 1.14 | 1.32 | 1.05 | 1.02 | 0.938 | 0.755 | 1.33 | 0.91 | 1.26 | 1.06 | 0.987 | 1.24 | 0.824 | 0.517 | 0.394 | 0.439 | 0.459 | 0.396
LK-2 | 0.253 | 0.352 | 0.31 | 0.306 | 0.282 | 1.33 | 1.08 | 0.529 | 0.756 | 0.403 | 0.321 | 0.298 | 0.173 | 0.253 | 0.131 | 0.626 | 0.669 | 0.476 | 0.459 | 0.441
201T | 0.319 | 0.308 | 0.307 | 0.344 | 0.316 | 1.16 | 1.14 | – | 0.973 | 0.32 | 0.359 | 0.343 | 0.35 | 0.311 | 0.271 | 0.793 | 0.767 | 0.647 | 0.741 | 0.719
NCI-H596 | 0.458 | 0.47 | 0.45 | 0.576 | 0.454 | 0.75 | 0.926 | 0.559 | 0.891 | 0.602 | 0.478 | 0.513 | 0.428 | 0.42 | 0.494 | 0.853 | 0.904 | 0.58 | 0.918 | 0.774
H3255 | 0.57 | 0.563 | 0.584 | 0.584 | 0.526 | 0.94 | 0.98 | 0.766 | 0.959 | 0.897 | 0.641 | 0.576 | 0.553 | 0.516 | 0.563 | 0.635 | 0.65 | – | 0.665 | 0.599
NCI-H647 | 0.155 | 0.162 | 0.192 | 0.218 | 0.127 | 1.03 | 0.979 | 0.333 | 0.198 | 0.167 | 0.18 | 0.183 | 0.149 | 0.115 | 0.115 | 0.53 | 0.508 | 0.184 | 0.116 | 0.112
NCI-H2023 | 0.24 | 0.255 | 0.288 | 0.255 | 0.149 | 0.843 | 0.891 | 0.713 | 0.635 | 0.361 | 0.232 | 0.2 | 0.138 | 0.18 | 0.149 | 0.595 | 0.636 | 0.367 | 0.523 | 0.308
NCI-H23 | 1.12 | 0.585 | 0.602 | 0.684 | 0.316 | 1.09 | 1.1 | 0.658 | 0.893 | 0.854 | 0.777 | 0.706 | – | 0.649 | 0.494 | 0.486 | 0.443 | – | 0.405 | 0.412
NCI-H1944 | 0.899 | 0.603 | 0.599 | 0.631 | 0.552 | 0.966 | 0.859 | 0.858 | 0.81 | 0.649 | 0.696 | 0.604 | 0.614 | 0.573 | 0.357 | 0.481 | 0.411 | 0.45 | 0.498 | 0.419
NCI-H1793 | 1.14 | 0.737 | 0.869 | 1.03 | 0.686 | 0.685 | 0.84 | – | 0.573 | 0.207 | 1.08 | 0.92 | 0.292 | 0.347 | 0.287 | 0.466 | 0.477 | 0.257 | 0.269 | 0.21
NCI-H520 | 0.757 | 0.673 | 0.636 | 0.416 | 0.267 | 0.895 | 0.742 | 0.419 | 0.395 | 0.243 | 0.687 | 0.588 | 0.374 | 0.239 | 0.215 | 0.651 | 0.698 | 0.544 | 0.314 | 0.229
NCI-H460 | 0.0638 | 0.0586 | 0.0621 | 0.0582 | 0.0624 | 1.08 | 0.948 | 0.689 | 0.463 | 0.0513 | 0.0616 | 0.0545 | 0.08 | 0.076 | 0.0682 | 0.24 | 0.182 | 0.0901 | 0.196 | 0.0781
EKVX | 0.399 | 0.418 | 0.359 | 0.67 | 0.391 | 0.893 | 0.624 | 0.731 | 0.753 | 0.75 | 0.396 | 0.431 | – | 0.433 | 0.397 | 0.51 | 0.328 | – | 0.294 | 0.321
NCI-H358 | 0.184 | 0.168 | 0.153 | 0.164 | 0.164 | 0.723 | 0.602 | 0.476 | 0.391 | 0.184 | 0.159 | 0.187 | 0.161 | 0.162 | 0.179 | 0.146 | 0.134 | 0.117 | 0.145 | 0.113
EPLC-272H | 0.325 | 0.355 | 0.242 | 0.295 | 0.202 | 0.958 | 0.591 | 0.6 | 0.631 | 0.468 | 0.36 | 0.331 | – | 0.342 | 0.264 | 0.348 | – | 0.258 | 0.223 | 0.352
NCI-H1395 | 0.882 | 0.735 | 0.848 | 0.95 | 0.86 | 0.852 | 0.961 | 0.772 | 0.608 | 0.445 | 1.05 | 0.787 | 0.661 | 0.749 | 0.489 | 1.15 | 1.05 | 0.966 | 0.767 | 0.62
NCI-H2126 | 0.694 | 0.726 | 0.649 | 0.744 | 0.552 | 1.44 | 1.09 | 0.97 | 1.06 | 0.883 | 0.635 | 0.487 | 0.592 | 0.453 | 0.348 | 0.532 | 0.561 | 0.476 | 0.557 | 0.437
LXF-289 | 0.959 | 0.857 | 0.876 | 0.877 | 0.764 | 1.09 | 0.984 | 0.847 | 0.626 | 0.241 | 0.919 | 0.879 | 0.895 | 0.702 | 0.403 | 0.796 | 0.731 | 0.651 | 0.488 | 0.296
NCI-H2009 | 1.06 | 1.11 | 1.1 | 0.993 | 0.877 | 1.28 | 1.25 | 0.919 | 0.973 | 0.373 | 1.12 | 0.962 | 0.767 | 0.675 | 0.211 | 0.294 | 0.276 | 0.274 | 0.243 | 0.197
NCI-H2405 | 1.2 | 1.01 | 1 | 1.04 | 0.796 | 1.04 | 1.05 | 1.07 | 0.986 | 0.664 | 1.14 | 0.913 | 0.795 | 1.09 | 0.681 | 0.602 | 0.602 | 0.516 | 0.683 | 0.532
NCI-H1755 | 0.497 | 0.469 | 0.408 | 0.465 | 0.408 | 0.925 | 0.918 | 0.854 | 0.992 | 0.591 | 0.365 | 0.37 | 0.438 | 0.638 | 0.397 | 0.885 | 0.766 | 0.726 | 0.761 | 0.61
HCC-78 | 1.06 | 0.889 | 0.947 | 0.916 | 0.919 | 0.523 | 0.547 | 0.53 | 0.584 | 0.477 | 0.88 | 0.941 | – | 0.882 | 0.978 | 0.893 | 0.742 | – | 0.794 | 0.436
